Reference: patent US20210128609A1, “ONCOLOGY TREATMENTS USING ZINC AGENTS” (XYLONIX IP HOLDINGS PTE. LTD., priority 2018, published 2021)

Experiments:
Format in all cases: cell-based
HCC1954 = experiment: CellTiter-Glo cell viability, HCC1954
Procedure: (§1) The 50% inhibitory concentration (IC50) was determined in the cancer cell lines using CellTiter-Glo luminescent cell viability assay after incubation with different concentrations of active agents. Each cell line was treated with active Zn(II) agent, a standard chemotherapy drug as reference control, and culture medium as vehicle control. Cell Lines. All cell lines were cultured in media supplemented with 10-15% FBS, at a temperature of 37° C., 5% CO2, and 95% humidity. The reference control drug for all cell lines was cisplatin, to be used for genomic analysis. The cell lines tested, the tissue of origin are shown below in Table 1: Procedure for Determining Half Maximal Inhibition Concentration IC50 • 1. Harvested cells during the logarithmic growth period and count cell number using Count-star. • 2. Adjusted cell concentrations to 4.44×10^4 cells/mL with respective culture medium. • 3. Added 90 μL cell suspensions to two 96-well plates (plates A and B) with the final cell density of 4×10^3 cells/well. (cell concentration was adjusted according to the data base or density optimization assay.) • 4a. Next day: For the plates of TO reading: • 1) Added 10 μL culture medium to each well of plate A for TO reading. • 2) Equilibrated the plate and its content at RT for approximately 30 min. • 3) Added 50 μL CellTiter-Glo reagent to each well. • 4) Mixed content for 5 min on an orbital shaker to induce cell lysis. • 5) Allowed the plate to incubate at RT for 20 min to stabilize luminescent signal. • 6) Recorded luminescence (TO) using EnVision Multi Label Reader. • 4b. For the plates of test reading: • 1) Prepared 10× solution of Zn(II) agent test article. […] The formula for calculating surviving rate is shown below and the absolute IC50 (EC50) was calculated according to the dose-response curve generated by GraphPad Prism 5.0. • 12) The surviving rate (%)=(LumTest article−LumMedium control)/(LumNon-treated−LumMedium control)×100%.

DU4475 = experiment: CellTiter-Glo cell viability, DU4475
Procedure: as §1

NAMALWA = experiment: CellTiter-Glo cell viability, NAMALWA
Procedure: as §1

NALM-6 = experiment: CellTiter-Glo cell viability, NALM-6
Procedure: as §1

MOLP8 = experiment: CellTiter-Glo cell viability, MOLP8
Procedure: as §1

Pfeiffer = experiment: CellTiter-Glo cell viability, Pfeiffer
Procedure: as §1

SU-DHL-6 = experiment: CellTiter-Glo cell viability, SU-DHL-6
Procedure: as §1

OCI-AML2 = experiment: CellTiter-Glo cell viability, OCI-AML2
Procedure: as §1

JJN-3 = experiment: CellTiter-Glo cell viability, JJN-3
Procedure: as §1

AsPC-1 = experiment: CellTiter-Glo cell viability, AsPC-1
Procedure: as §1

[1] = 96 h, top conc. 50 μg/mL Zn(II) agent, 100 μM cisplatin

`N.N.[Cl][Pt][Cl]` [Cisplatin] was tested, and the “Absolute IC50” value (HCC1954; 96 h, CellTiter-Glo) was 1.59 µg/mL, the “% inhibition at top conc.” value (HCC1954; [1]) was 99.87% and the HillSlope (HCC1954; 96 h dose-response fit) was −1.98. The “Absolute IC50” value (DU4475; 96 h, CellTiter-Glo) was 0.31 µg/mL, the “% inhibition at top conc.” value (DU4475; [1]) was 99.94% and the HillSlope (DU4475; 96 h dose-response fit) was −2.54. The “Absolute IC50” value (NAMALWA; 96 h, CellTiter-Glo) was 0.07 µg/mL, the “% inhibition at top conc.” value (NAMALWA; [1]) was 99.99% and the HillSlope (NAMALWA; 96 h dose-response fit) was −3.97. For the same compound, the “Absolute IC50” value (NALM-6; 96 h, CellTiter-Glo) was 0.21 µg/mL, the “% inhibition at top conc.” value (NALM-6; [1]) was 99.64% and the HillSlope (NALM-6; 96 h dose-response fit) was −2.22. The “Absolute IC50” value (MOLP8; 96 h, CellTiter-Glo) was 0.16 µg/mL, the “% inhibition at top conc.” value (MOLP8; [1]) was 99.98% and the HillSlope (MOLP8; 96 h dose-response fit) was −2.16. For the same compound, the “Absolute IC50” value (Pfeiffer; 96 h, CellTiter-Glo) was 0.83 µg/mL, the “% inhibition at top conc.” value (Pfeiffer; [1]) was 99.98% and the HillSlope (Pfeiffer; 96 h dose-response fit) was −1.79. The “Absolute IC50” value (SU-DHL-6; 96 h, CellTiter-Glo) was 0.38 µg/mL, the “% inhibition at top conc.” value (SU-DHL-6; [1]) was 99.99% and the HillSlope (SU-DHL-6; 96 h dose-response fit) was −1.11. For the same compound, the “Absolute IC50” value (OCI-AML2; 96 h, CellTiter-Glo) was 0.33 µg/mL, the “% inhibition at top conc.” value (OCI-AML2; [1]) was 99.96% and the HillSlope (OCI-AML2; 96 h dose-response fit) was −2.66. The “Absolute IC50” value (JJN-3; 96 h, CellTiter-Glo) was 0.28 µg/mL, the “% inhibition at top conc.” value (JJN-3; [1]) was 99.81% and the HillSlope (JJN-3; 96 h dose-response fit) was −1.17. For the same compound, the “Absolute IC50” value (AsPC-1; 96 h, CellTiter-Glo) was 0.67 µg/mL, the “% inhibition at top conc.” value (AsPC-1; [1]) was 81.58% and the HillSlope (AsPC-1; 96 h dose-response fit) was −1.47.
